Values belong to the compound of their own block, whether it stands above or below them.
Legend:
[1] = Storage at 25 °C with constant exposure to the air; type: physicochemical
Experimental: The figures also show the separation of PGF2α and its 15-epimer. […] In FIGS. 4, 4a and 4b, all injections represent 100 μg of PGF2α initial samples.

physchem = assay: physchem
Experimental: A weighed sample was diluted with dioxane to produce a solution which was 10μg PGF2α /μl of solution. This solution was used to calibrate the response of the differential refractometer of a Waters Assoc. Model 100 high pressure liquid chromatograph (h.p.l.c.). The calibration appears in FIG. 1. FIG. 1, the PGF2α peak height conditions are as follows: column 4 feet ×0.125 inches o.d., column of Corasil -II. Solvent 0.2% HOAc/EtOAc wherein the former is acetic acid and the latter is ethyl acetate. Flow 0.9ml/min. Reaction times: dioxane front appears at […]. PGF2α at 14 min. from injection corresponding to column void volume after void volume displacement. The numbers on the x-axis are μg injected and the numbers along the y-axis indicate detector response in inches at peak heights.
Weighed samples, 0.5-1.0 mg. ± 0.03 mg, of PGF2α and crystalline racemic PGF2α were placed in 1 dram vials. These vials were randomly divided between storage at -20° C under argon and storage at 41 ± 2°, open to the air, in a sand bath. At stipulated times samples were removed from both types of storage, diluted to 10μg PGF2α /μl, and assayed by h.p.l.c. […] Individual assays of 41° C stored samples are collected in FIG. 2. […] The open symbols are for racemic PGF2α and the closed symbols are for nat. PGF2α. The different symbols are used to indicate different samples. Replicate analysis appear as multiple used of the same symbols at any one time. […] The numbers along the x-axis are days at 41 ± 2° C and along the y-axis are percents.
Since, prostaglandins, including the dienoics, are known to be unstable, as they undergo autoxidation on exposure to air. Methods of Biochemical Analysis, Vol. 17, pages 325 to 371, 1969, published by Interscience Publishers, New York.
FIGS. 3, 3a and 3b show the traces from rapid analysis, (at 1 ml/min.). […] In FIGS. 4, 4a and 4b, all injections represent 100 μg of PGF2α initial samples.

[2] = Storage at -20 °C under argon, h.p.l.c. assay; type: physicochemical; settings: samples taken at stipulated times
Experimental: Natural 9α,11α,15(S)-trihydroxy-5-cis,13-trans-prostadienoic acid, natural PGF2α, prepared from total synthesis was a soft, waxy semi-crystalline compound melting in the range of 25°-32°. […] The calibration appears in FIG. 1. FIG. 1, the PGF2α peak height conditions are as follows: column 4 feet ×0.125 inches o.d., column of Corasil -II. […] Flow 0.9ml/min. Reaction times: dioxane front appears at 30 min.
Weighed samples, 0.5-1.0 mg. ± 0.03 mg, of PGF2α and crystalline racemic PGF2α were placed in 1 dram vials. These vials were randomly divided between storage at -20° C under argon and storage at 41 ± 2°, open to the air, in a sand bath. […] In FIG. 2, the loss of PGF2α on storage open to air at 41 ± 2° C is set forth. […] PGF2α. The different symbols are used to indicate different samples. […] The numbers along the x-axis are days at 41 ± 2° C and along the y-axis are percents. The crystalline racemate assayed 103 ± 3% based on the natural compound.

extent of oxidation ([1]; in 17 days, stated for comparison ("would be")): over half oxidized in 17 days
SMILES: CCCCC[C@H](O)/C=C/[C@@H]1[C@@H](C/C=C\CCCC(=O)O)[C@@H](O)C[C@H]1O (relative stereo) [Polymorph I, racemic 9α,11α,15(S)-trihydroxy-5-cis,13-trans-prostadienoic acid]

long term storage stability (overall finding) (physchem): superior long term storage stability | change after storage (physchem; after 14 days, open to air at 41 ± 2 °C): unchanged after 14 days | assay of crystalline racemate based on the natural compound (physchem; h.p.l.c., differential refractometer, based on natural PGF2α): 103 ± 3% | degraded (physchem; storage open to air): 3%
SMILES: CCCCC[C@H](O)/C=C/[C@@H]1[C@@H](C/C=C\CCCC(=O)O)[C@@H](O)C[C@H]1O (relative stereo) [Polymorph II, crystalline racemic 9α,11α,15(S)-trihydroxy-5-cis,13-trans-prostadienoic acid]
crystalline loss on storage ([1]; 25 °C, constant exposure to the air, after more than one year): without any evidence of crystalline loss after more than one year | assay by h.p.l.c. against fresh standards after storage [2]: within experimental error of fresh standards (±6%)

SMILES: CCCCC[C@H](O)/C=C/[C@@H]1[C@@H](C/C=C\CCCC(=O)O)[C@@H](O)C[C@H]1O [PGF2α, Natural 9α,11α,15(S)-trihydroxy-5-cis,13-trans-prostadienoic acid, reference compound]
identity of degradation products versus 15-epi-PGF2α (physchem): Neither of the degradation products seen in the PGF2α sample stored 9 days at 41 °C corresponds to 15-epi-PGF2α | assay by h.p.l.c. against fresh standards after storage [2]: within experimental error of fresh standards (±6%)

measured half life of degradation by oxidation (physchem): 17 days
SMILES: CCCCC[C@H](O)/C=C/[C@@H]1[C@@H](C/C=C\CCCC(=O)O)[C@@H](O)C[C@H]1O [oily PGF2α, reference compound]
course of degradation by oxidation (physchem): degrades by oxidation rapidly at first suggestive of a surface reaction, and then more slowly

— patent publication US3940438A, “Crystalline racemic 9α,11α,15(S)-trihydroxy-5-cis,13-trans-prostadienoic acid” (priority 1973, dated 1976)
